Assay results as given in ChEMBL document CHEMBL5226285, “The long and winding road of designing phosphodiesterase inhibitors for the treatment of heart failure” (Eur J Med Chem, 2021).

How the values were obtained:
[1] = target: T1, 3',5'-cyclic-AMP phosphodiesterase 4B (Homo sapiens, UniProt Q07343)
Description: Inhibition of human recombinant PDE4B1 using FAM-cAMP as substrate incubated for 20 mins

[2] = target: T2, cAMP and cAMP-inhibited cGMP 3',5'-cyclic phosphodiesterase 10A (Homo sapiens, UniProt Q9Y233)
Description: Inhibition of PDE10A (unknown origin)

[3] = target: Dual specificity calcium/calmodulin-dependent 3',5'-cyclic nucleotide phosphodiesterase 1B (Homo sapiens, UniProt Q01064)
Description: Inhibition of PDE1B (unknown origin)

[4] = target: T3, cGMP-specific 3',5'-cyclic phosphodiesterase (Homo sapiens, UniProt O76074)
Description: Inhibition of PDE5A1 (unknown origin) using FAM-cGMP as substrate incubated for 60 mins by IMAP-fluorescence polarization assay

[5] = target: T4, Acetylcholinesterase (Rattus norvegicus, UniProt P37136)
T4 sequence (P37136 whole entry): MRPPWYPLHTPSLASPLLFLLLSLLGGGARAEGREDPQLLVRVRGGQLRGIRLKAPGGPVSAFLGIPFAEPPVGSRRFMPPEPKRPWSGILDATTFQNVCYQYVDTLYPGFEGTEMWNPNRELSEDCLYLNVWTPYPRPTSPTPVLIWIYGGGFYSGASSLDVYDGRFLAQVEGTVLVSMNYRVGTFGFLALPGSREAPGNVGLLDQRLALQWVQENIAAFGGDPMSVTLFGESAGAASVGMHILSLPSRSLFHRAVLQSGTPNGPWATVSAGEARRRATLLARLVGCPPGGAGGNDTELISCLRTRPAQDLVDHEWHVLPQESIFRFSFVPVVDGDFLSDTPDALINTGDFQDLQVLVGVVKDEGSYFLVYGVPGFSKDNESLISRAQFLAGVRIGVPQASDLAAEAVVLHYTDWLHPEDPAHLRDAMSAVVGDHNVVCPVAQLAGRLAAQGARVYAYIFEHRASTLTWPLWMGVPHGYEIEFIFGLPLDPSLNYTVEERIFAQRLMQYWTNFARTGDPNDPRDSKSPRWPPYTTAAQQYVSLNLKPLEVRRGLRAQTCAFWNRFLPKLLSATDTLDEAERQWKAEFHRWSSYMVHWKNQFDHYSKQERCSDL
Description: Inhibition of rat cortex AChE using acetylthiocholine iodide as substrate incubated for 20 mins by DTNB-reagent based Ellman's method

[6] = target: High affinity cGMP-specific 3',5'-cyclic phosphodiesterase 9A (Homo sapiens, UniProt O76083)
Description: Inhibition of PDE9A (unknown origin)

[7] = target: T2, cAMP and cAMP-inhibited cGMP 3',5'-cyclic phosphodiesterase 10A; remark: listed apart in the source
[8] = target: cGMP-dependent 3',5'-cyclic phosphodiesterase (Homo sapiens, UniProt O00408)
[9] = target: Phosphodiesterase 4 (Homo sapiens, UniProt P27815+Q08499+Q07343+Q08493); assay type: protein assay
Description: Inhibition of PDE4 (unknown origin)

[10] = target: T3, cGMP-specific 3',5'-cyclic phosphodiesterase; remark: listed apart in the source
Description: Inhibition of human recombinant PDE5A using (Fl)-cAMP and TAMRA-cGMP as substrate incubated for 60 mins by IMAP-fluorescence polarization assay

[11] = target: T1, 3',5'-cyclic-AMP phosphodiesterase 4B; remark: listed apart in the source
Description: Displacement of [3H]-cAMP from full-length recombinant human PDE4B1 by fluorescence polarisation assay

[12] = target: 3',5'-cyclic-AMP phosphodiesterase 4D (Homo sapiens, UniProt Q08499)
Description: Displacement of [3H]-cAMP from full-length recombinant human PDE4D7 by fluorescence polarisation assay

[13] = target: High affinity cAMP-specific and IBMX-insensitive 3',5'-cyclic phosphodiesterase 8A (Homo sapiens, UniProt O60658); experiment: biochemical; assay type: cell-based, Sf9
Sequence of High affinity cAMP-specific and IBMX-insensitive 3',5'-cyclic phosphodiesterase 8A (O60658 whole entry): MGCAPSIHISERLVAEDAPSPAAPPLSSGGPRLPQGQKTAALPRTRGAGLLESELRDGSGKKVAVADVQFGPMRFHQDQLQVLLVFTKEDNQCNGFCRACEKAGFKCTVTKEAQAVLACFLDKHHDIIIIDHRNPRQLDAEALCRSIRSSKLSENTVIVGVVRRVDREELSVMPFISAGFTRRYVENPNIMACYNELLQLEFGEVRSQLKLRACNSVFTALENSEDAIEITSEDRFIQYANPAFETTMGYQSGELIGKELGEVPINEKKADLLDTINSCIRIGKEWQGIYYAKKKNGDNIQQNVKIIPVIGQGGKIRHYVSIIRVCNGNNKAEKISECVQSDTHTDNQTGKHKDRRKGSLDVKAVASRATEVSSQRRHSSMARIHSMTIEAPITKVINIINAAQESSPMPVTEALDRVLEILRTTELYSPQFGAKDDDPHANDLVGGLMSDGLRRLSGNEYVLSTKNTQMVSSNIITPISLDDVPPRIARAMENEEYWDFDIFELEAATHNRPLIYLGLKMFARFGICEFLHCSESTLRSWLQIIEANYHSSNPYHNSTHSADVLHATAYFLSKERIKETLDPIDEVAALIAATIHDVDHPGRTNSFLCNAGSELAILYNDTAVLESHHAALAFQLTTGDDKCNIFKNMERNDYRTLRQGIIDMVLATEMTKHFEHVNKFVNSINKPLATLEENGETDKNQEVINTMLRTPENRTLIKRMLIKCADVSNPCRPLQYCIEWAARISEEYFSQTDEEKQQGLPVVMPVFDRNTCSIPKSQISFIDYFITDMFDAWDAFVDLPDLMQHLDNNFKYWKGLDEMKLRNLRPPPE
Description: Inhibition of human recombinant PDE8A expressed in baculovirus infected Sf9 insect cells

T1 sequence (Q07343 whole entry): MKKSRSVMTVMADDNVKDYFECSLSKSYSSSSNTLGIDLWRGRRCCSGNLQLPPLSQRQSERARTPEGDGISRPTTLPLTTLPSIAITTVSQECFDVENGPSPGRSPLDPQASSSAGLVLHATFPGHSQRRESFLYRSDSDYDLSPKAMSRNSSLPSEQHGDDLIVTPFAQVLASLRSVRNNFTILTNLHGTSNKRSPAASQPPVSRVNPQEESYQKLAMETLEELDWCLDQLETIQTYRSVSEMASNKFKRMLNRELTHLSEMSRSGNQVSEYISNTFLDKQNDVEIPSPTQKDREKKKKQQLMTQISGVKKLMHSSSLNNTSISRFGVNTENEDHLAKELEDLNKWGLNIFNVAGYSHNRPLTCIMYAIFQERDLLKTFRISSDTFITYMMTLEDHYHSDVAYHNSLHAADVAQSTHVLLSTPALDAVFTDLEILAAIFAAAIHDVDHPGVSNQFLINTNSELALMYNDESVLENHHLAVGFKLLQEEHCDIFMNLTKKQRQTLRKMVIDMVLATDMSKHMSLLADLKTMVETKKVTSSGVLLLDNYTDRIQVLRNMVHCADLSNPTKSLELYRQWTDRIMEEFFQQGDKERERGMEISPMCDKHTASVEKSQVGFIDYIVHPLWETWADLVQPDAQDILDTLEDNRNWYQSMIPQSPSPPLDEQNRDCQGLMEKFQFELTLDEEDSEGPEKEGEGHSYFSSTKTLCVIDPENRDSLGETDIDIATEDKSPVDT
T2 sequence (Q9Y233 whole entry): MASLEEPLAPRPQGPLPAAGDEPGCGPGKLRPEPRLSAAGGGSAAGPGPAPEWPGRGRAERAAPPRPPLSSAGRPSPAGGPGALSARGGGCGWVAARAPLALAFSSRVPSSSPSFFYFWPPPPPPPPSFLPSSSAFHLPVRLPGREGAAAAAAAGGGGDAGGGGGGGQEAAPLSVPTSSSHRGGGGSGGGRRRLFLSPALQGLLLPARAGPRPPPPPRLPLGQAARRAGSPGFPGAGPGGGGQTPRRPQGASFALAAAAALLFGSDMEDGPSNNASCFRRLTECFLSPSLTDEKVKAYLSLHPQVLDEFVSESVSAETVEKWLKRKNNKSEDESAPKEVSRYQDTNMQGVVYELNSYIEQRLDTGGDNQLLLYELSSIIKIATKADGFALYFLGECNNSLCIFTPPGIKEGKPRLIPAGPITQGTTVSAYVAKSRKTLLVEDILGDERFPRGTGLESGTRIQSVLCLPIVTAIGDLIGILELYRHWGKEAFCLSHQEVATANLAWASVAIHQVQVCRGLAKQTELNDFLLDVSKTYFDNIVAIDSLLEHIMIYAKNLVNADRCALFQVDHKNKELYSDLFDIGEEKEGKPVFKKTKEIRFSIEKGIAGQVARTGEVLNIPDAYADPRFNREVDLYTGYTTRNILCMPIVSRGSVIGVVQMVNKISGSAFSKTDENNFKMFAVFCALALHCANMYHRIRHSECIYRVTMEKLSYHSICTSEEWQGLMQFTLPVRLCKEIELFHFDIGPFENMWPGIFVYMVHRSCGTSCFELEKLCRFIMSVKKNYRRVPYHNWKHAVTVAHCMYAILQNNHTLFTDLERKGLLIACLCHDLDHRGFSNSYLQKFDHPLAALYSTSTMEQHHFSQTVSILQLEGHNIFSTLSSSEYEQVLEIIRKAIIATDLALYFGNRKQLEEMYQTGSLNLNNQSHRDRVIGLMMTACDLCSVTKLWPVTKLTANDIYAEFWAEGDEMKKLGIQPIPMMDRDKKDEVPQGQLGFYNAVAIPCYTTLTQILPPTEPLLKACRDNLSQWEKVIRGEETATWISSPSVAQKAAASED
Sequence of Dual specificity calcium/calmodulin-dependent 3',5'-cyclic nucleotide phosphodiesterase 1B (Q01064 whole entry): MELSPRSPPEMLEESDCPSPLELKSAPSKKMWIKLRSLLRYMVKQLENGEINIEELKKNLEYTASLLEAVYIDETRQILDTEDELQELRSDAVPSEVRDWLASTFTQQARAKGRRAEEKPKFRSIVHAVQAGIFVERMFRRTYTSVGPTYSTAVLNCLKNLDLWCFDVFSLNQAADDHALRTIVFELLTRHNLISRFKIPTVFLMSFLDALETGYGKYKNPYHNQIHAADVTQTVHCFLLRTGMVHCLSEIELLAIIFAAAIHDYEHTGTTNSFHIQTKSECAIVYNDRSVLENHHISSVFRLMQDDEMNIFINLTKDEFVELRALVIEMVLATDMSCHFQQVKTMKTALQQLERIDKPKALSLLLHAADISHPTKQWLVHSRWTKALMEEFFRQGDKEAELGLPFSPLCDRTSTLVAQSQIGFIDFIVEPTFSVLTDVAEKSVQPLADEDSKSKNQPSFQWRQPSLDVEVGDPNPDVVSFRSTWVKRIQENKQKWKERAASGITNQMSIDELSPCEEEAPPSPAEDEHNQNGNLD
Sequence of cGMP-dependent 3',5'-cyclic phosphodiesterase (O00408 whole entry): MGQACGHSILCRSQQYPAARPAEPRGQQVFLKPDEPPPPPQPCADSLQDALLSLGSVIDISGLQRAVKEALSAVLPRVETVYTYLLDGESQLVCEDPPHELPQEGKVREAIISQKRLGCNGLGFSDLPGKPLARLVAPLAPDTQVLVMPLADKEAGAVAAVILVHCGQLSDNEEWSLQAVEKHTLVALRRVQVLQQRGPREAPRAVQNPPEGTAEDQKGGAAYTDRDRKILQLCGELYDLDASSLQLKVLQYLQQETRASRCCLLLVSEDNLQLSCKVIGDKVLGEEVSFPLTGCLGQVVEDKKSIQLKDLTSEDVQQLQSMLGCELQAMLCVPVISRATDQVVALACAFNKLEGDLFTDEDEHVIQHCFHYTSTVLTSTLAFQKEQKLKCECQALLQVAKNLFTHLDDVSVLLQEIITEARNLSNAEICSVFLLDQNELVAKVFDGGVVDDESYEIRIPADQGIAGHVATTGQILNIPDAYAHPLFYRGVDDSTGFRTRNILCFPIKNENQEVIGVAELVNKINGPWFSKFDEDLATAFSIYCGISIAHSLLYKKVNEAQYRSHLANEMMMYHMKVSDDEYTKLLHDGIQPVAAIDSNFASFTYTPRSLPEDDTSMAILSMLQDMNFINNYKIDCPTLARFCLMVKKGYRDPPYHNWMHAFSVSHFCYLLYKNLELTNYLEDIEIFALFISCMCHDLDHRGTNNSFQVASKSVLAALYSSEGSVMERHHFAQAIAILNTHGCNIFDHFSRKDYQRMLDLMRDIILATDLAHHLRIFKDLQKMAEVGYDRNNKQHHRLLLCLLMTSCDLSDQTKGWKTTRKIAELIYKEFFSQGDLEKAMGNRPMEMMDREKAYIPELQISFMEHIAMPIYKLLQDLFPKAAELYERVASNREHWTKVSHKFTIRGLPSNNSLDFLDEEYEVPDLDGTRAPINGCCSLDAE
Sequence of 3',5'-cyclic-AMP phosphodiesterase 4D (Q08499 whole entry): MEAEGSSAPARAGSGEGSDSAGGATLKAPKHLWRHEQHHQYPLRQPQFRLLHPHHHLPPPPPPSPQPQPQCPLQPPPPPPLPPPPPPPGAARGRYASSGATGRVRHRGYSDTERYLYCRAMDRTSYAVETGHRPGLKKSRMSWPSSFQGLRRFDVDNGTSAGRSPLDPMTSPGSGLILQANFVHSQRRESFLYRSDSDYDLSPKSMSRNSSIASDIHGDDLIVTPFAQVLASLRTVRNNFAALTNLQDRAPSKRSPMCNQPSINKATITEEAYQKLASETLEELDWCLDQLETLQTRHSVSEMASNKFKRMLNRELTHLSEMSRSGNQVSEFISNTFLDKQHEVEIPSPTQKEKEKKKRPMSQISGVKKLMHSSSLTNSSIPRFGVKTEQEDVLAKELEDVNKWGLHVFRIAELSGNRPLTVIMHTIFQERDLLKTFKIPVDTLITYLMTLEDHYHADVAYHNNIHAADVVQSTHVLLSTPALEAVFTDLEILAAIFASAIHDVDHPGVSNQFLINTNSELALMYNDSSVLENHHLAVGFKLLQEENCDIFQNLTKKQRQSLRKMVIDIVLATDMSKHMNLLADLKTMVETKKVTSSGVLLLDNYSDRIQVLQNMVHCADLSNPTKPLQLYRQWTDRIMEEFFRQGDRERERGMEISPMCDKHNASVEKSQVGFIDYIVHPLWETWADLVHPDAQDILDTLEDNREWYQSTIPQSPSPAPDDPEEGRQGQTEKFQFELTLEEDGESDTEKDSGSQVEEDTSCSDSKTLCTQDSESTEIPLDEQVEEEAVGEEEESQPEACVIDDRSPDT

COc1ccc([C@H]2CCN3C(=O)NC[C@H]23)cc1OC1CCCC1 showed an IC50 [1] of 27 nM.
With COc1cc2ncnc(N3CC[C@@H](Oc4cnc5ccccc5n4)C3)c2cc1OC the IC50 [2] was 6 nM.
COc1cc2ncnc(C(C)c3cccc(Cl)c3)c2cc1OC (centres undefined) was tested, and the IC50 [3] was 130 nM.
Work on O=C1[C@H]2Cc3c([nH]c4ccccc34)[C@@H](c3ccc4c(c3)OCO4)N2C(=O)CN1CCC1CCN(Cc2ccccc2)CC1 yielded an IC50 [4] of 36 nM and an IC50 [5] of 153 nM.
For C[C@@H](Nc1nc2c(cnn2C2CCCC2)c(=O)n1Cc1ccccc1)c1ccc(Cl)cc1, the IC50 [6] was greater than 10000 nM.
CCCCOc1ccc(F)c(-c2nc(C)c3nnc4ccc(OCCF)nc4n23)c1 showed an IC50 [7] greater than 1000 nM.
For Cc1ncn(-c2nc3c(C(=O)N[C@@H](c4ccc(OC(F)(F)F)cc4)C(C)(C)O)cnn3cc2C)n1, the IC50 [8] was 0.51 nM.
CCCN(CCC)c1ncnc2c(OC)c(OC)c(OC)cc12 was tested, and the IC50 [3] was 219 nM.
For CC(=O)OCCOc1nc(Oc2ccc3c(c2)COB3O)ccc1C#N, the IC50 [9] was 0.7 nM.
O=C1[C@@H]2Cc3c([nH]c4ccccc34)[C@@H](c3ccc4c(c3)OCO4)N2C(=O)CN1CCC1CCN(Cc2ccccc2)CC1 was tested, and the IC50 [4] was 32 nM and the IC50 [5] was 1530 nM.
For CCN1CC(=O)N2[C@H](c3ccc(Cl)cc3)c3[nH]c4ccccc4c3C[C@@H]2C1=O, the IC50 [10] was 3 nM.
For COc1ccc([C@@H]2c3[nH]c4ccccc4c3C[C@H]3C(=O)N(CCC4CCN(Cc5ccccc5)CC4)CC(=O)N23)cc1, the IC50 [4] was 15 nM and the IC50 [5] was 3230 nM.
O=C1NC[C@@H]2[C@@H](c3ccc(OC(F)F)c(OCC4CC4)c3)CCN12 showed an IC50 [1] of 18 nM.
N#CC(c1ccc(OC(F)F)c(OC2CCCC2)c1)c1ccc(Cl)nn1 (centres undefined) gave an IC50 [11] of 290 nM and an IC50 [12] of 310 nM.
OCCN(CCO)c1nc(N2CCCCC2)c2nc(N(CCO)CCO)nc(N3CCCCC3)c2n1 [DIPYRIDAMOLE] gave an IC50 [13] of 4000 nM.
